Test results reported in patent US11542240B2, “STK19 inhibitors for treatment of cancer” (TRUSTEES OF BOSTON UNIVERSITY, priority 2018, dated 2023).
Read-outs that look alike come from different tables or passages of the source.

How the values were obtained:
Assay in all cases: biochemical
Assay type in all cases: binding
[1] = target: panel of 468 diverse kinases (Homo sapiens, UniProt O00750); conditions: PIK3C2B; 1000 nM; read-out: Percent Control
[2] = target: panel of 468 diverse kinases (Homo sapiens, UniProt O75460); conditions: ERN1; 1000 nM; read-out: Percent Control
[3] = target: panel of 468 diverse kinases (Homo sapiens, UniProt O94804); conditions: LOK; 1000 nM; read-out: Percent Control
[4] = target: panel of 468 diverse kinases (Homo sapiens, UniProt O96017); conditions: CHEK2; 1000 nM; read-out: Percent Control
[5] = target: panel of 468 diverse kinases (Homo sapiens, UniProt P07333); conditions: 1000 nM, read-out: Percent Control
[6] = target: panel of 468 diverse kinases (Homo sapiens, UniProt P08581, M1250T); conditions: MET(M1250T); 1000 nM; read-out: Percent Control
[7] = target: panel of 468 diverse kinases (Homo sapiens, UniProt P08581, Y1235D); conditions: MET(Y1235D); 1000 nM; read-out: Percent Control
[8] = target: panel of 468 diverse kinases (Homo sapiens, UniProt P30530); conditions: AXL; 1000 nM; read-out: Percent Control
[9] = target: panel of 468 diverse kinases (Homo sapiens, UniProt P42336, E542K); conditions: PIK3CA(E542K); 1000 nM; read-out: Percent Control
[10] = target: panel of 468 diverse kinases (Homo sapiens, UniProt P45985); conditions: MEK4; 1000 nM; read-out: Percent Control
[11] = target: panel of 468 diverse kinases (Homo sapiens, UniProt P48729); conditions: CSNKIV1; 1000 nM; read-out: Percent Control
[12] = target: panel of 468 diverse kinases (Homo sapiens, UniProt P48736); conditions: PIK3CG; 1000 nM; read-out: Percent Control
[13] = target: panel of 468 diverse kinases (Homo sapiens, UniProt P53671); conditions: LIMK2; 1000 nM; read-out: Percent Control
[14] = target: panel of 468 diverse kinases (Homo sapiens, UniProt P78356); conditions: PIP5K2B; 1000 nM; read-out: Percent Control
[15] = target: panel of 468 diverse kinases (Homo sapiens, UniProt Q02763); conditions: TIE2; 1000 nM; read-out: Percent Control
[16] = target: panel of 468 diverse kinases (Homo sapiens, UniProt Q13627); conditions: DYRKIV; 1000 nM; read-out: Percent Control
[17] = target: panel of 468 diverse kinases (Homo sapiens, UniProt Q13976); conditions: PRKG1; 1000 nM; read-out: Percent Control
[18] = target: panel of 468 diverse kinases (Homo sapiens, UniProt Q15139); conditions: PRKD1; 1000 nM; read-out: Percent Control
[19] = target: panel of 468 diverse kinases (Homo sapiens, UniProt Q16620); conditions: TRKB; 1000 nM; read-out: Percent Control
[20] = target: panel of 468 diverse kinases (Homo sapiens, UniProt Q16832); conditions: DDR2; 1000 nM; read-out: Percent Control
[21] = target: panel of 468 diverse kinases (Homo sapiens, UniProt Q7KZI7); conditions: MARK2; 1000 nM; read-out: Percent Control
[22] = target: panel of 468 diverse kinases (Homo sapiens, UniProt Q8IYT8); conditions: ULK2; 1000 nM; read-out: Percent Control
[23] = target: panel of 468 diverse kinases (Homo sapiens, UniProt Q8WXR4); conditions: MYO3B; 1000 nM; read-out: Percent Control
[24] = target: panel of 468 diverse kinases (Homo sapiens, UniProt Q96PN8); conditions: TS SK3; 1000 nM; read-out: Percent Control
[25] = target: panel of 468 diverse kinases (Homo sapiens, UniProt Q9BWU1); conditions: CDK11; 1000 nM; read-out: Percent Control
[26] = target: panel of 468 diverse kinases (Homo sapiens, UniProt Q9UL54); conditions: TAOK2; 1000 nM; read-out: Percent Control
[27] = target: panel of 468 diverse kinases (Homo sapiens, UniProt Q9Y243); conditions: AKT3; 1000 nM; read-out: Percent Control
[28] = target: panel of 468 diverse kinases (Homo sapiens, UniProt Q9Y2U5); conditions: MAP3K2; 1000 nM; read-out: Percent Control
[29] = target: panel of 468 diverse kinases (Homo sapiens, UniProt Q9Y6E0); conditions: MST3; 1000 nM; read-out: Percent Control
[30] = target: panel of 468 diverse kinases (Mycobacterium tuberculosis, UniProt P9WI81); conditions: read-out: Percent Control
[31] = target: panel of 468 diverse kinases (Plasmodium falciparum, UniProt P62344); conditions: read-out: Percent Control
panel of 468 diverse kinases (Plasmodium falciparum, UniProt P62344), sequence (P62344 2-524 limits assumed): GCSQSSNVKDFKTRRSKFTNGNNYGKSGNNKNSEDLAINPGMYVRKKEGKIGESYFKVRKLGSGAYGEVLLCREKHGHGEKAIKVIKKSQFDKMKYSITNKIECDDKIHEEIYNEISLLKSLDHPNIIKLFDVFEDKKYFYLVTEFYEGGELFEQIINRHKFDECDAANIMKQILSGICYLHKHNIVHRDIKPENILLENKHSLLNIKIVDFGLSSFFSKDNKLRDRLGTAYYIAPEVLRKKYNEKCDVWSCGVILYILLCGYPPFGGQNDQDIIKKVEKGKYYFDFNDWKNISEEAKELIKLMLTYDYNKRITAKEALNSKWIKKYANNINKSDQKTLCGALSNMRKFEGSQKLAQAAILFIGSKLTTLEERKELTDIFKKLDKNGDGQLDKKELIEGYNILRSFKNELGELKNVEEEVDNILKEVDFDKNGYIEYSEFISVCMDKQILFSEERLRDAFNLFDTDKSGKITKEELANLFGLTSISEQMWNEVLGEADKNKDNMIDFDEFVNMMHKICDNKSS

panel of 468 diverse kinases (Homo sapiens, UniProt P07333), sequence (P07333 20-972 limits assumed): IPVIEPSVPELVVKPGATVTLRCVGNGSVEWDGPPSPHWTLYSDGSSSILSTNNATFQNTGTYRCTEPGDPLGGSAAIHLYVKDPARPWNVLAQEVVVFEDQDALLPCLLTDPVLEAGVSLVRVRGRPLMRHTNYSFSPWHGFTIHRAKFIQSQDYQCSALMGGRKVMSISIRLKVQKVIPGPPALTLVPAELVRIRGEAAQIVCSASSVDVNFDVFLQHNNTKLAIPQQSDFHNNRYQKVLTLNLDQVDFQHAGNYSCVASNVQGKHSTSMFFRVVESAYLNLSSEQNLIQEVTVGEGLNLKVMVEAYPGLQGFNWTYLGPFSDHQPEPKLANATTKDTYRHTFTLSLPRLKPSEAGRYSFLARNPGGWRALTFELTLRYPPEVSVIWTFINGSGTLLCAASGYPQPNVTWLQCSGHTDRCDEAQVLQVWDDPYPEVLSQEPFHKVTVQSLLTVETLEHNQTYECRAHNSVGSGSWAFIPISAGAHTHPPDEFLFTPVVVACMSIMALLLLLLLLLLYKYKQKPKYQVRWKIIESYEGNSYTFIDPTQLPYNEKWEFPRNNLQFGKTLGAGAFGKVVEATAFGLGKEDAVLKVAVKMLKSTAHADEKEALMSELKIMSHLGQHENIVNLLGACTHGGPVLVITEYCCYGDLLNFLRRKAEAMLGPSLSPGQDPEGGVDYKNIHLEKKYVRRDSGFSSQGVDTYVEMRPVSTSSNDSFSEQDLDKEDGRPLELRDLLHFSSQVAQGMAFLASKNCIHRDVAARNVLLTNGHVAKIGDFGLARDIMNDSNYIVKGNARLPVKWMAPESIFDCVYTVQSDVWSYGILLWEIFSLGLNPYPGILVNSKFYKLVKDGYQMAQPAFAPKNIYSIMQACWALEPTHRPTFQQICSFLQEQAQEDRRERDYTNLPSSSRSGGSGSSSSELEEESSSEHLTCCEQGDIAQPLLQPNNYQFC
panel of 468 diverse kinases (Homo sapiens, UniProt P30530), sequence (P30530 26-894 limits assumed): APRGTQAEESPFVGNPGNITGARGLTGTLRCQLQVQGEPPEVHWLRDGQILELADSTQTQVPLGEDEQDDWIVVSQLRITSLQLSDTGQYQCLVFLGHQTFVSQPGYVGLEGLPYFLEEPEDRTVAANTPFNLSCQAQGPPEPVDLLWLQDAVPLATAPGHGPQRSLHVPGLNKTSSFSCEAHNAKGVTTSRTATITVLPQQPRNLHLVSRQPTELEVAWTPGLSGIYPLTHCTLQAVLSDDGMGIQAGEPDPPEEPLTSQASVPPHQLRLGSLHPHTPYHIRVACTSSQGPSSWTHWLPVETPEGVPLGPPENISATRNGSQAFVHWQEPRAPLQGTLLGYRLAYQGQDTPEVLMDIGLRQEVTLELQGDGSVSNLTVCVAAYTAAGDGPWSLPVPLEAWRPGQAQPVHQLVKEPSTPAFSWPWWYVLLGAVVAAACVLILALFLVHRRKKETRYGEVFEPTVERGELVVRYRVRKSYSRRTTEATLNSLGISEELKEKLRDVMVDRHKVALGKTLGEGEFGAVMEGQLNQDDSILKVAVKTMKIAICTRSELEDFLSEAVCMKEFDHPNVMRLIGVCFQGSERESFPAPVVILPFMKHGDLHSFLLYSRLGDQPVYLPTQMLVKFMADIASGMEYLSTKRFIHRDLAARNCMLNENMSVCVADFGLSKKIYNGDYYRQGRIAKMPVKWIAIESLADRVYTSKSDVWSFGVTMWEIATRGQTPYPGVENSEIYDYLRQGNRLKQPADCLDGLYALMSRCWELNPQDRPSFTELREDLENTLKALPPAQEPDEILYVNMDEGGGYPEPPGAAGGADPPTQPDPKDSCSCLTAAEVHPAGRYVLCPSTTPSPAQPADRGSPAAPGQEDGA
panel of 468 diverse kinases (Homo sapiens, UniProt Q13976), sequence (Q13976 2-671 limits assumed): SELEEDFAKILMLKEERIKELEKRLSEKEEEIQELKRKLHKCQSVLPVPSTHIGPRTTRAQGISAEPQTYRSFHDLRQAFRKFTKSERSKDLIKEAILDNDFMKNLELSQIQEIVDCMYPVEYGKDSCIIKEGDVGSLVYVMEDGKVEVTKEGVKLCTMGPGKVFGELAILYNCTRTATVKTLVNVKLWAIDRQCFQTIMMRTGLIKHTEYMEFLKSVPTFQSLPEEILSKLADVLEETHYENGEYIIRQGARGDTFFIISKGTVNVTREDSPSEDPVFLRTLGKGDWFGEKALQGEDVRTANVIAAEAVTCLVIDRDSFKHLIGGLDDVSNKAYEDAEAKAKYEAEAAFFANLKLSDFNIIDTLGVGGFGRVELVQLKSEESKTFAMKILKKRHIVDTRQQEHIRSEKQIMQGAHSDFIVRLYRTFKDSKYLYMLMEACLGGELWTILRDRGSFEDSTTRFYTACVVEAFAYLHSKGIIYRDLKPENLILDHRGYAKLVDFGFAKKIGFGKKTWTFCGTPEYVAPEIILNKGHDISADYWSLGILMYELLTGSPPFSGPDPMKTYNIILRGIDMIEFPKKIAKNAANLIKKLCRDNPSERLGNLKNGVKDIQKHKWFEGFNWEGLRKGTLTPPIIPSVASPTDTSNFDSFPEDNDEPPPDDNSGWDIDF
panel of 468 diverse kinases (Homo sapiens, UniProt Q16832), sequence (Q16832 22-855 limits assumed): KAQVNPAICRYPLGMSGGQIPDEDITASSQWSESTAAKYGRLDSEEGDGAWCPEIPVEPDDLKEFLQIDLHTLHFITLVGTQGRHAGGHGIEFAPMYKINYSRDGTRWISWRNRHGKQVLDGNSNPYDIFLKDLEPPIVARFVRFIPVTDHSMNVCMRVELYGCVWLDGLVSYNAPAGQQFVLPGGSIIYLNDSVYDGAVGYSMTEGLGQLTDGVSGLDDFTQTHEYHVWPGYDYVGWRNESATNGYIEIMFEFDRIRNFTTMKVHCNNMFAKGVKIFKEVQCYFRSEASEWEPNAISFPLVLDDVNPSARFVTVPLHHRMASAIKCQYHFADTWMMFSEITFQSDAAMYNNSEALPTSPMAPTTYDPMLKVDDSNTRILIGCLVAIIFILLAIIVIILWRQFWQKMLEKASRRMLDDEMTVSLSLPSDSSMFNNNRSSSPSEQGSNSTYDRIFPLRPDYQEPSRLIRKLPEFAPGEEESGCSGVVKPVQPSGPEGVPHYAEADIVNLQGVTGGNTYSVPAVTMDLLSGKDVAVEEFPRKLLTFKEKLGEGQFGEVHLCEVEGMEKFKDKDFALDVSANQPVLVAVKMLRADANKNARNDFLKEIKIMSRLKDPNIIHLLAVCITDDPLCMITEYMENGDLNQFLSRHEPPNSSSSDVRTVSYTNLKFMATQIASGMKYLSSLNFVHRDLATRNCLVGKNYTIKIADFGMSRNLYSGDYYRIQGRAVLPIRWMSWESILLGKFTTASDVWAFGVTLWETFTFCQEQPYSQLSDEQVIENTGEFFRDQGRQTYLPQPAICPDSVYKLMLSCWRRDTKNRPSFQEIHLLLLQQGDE
panel of 468 diverse kinases (Homo sapiens, UniProt P48729), sequence (P48729 2-337 limits assumed): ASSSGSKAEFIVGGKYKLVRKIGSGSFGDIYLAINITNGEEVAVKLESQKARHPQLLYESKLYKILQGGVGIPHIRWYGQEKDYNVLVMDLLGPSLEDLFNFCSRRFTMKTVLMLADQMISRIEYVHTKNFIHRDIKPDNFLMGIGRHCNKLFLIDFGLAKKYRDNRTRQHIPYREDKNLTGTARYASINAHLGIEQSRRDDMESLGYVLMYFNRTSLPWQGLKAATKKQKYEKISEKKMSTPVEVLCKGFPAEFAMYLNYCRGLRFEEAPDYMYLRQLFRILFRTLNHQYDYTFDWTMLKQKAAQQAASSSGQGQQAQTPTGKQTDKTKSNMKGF
panel of 468 diverse kinases (Homo sapiens, UniProt Q9Y243), sequence (Q9Y243 2-479 limits assumed): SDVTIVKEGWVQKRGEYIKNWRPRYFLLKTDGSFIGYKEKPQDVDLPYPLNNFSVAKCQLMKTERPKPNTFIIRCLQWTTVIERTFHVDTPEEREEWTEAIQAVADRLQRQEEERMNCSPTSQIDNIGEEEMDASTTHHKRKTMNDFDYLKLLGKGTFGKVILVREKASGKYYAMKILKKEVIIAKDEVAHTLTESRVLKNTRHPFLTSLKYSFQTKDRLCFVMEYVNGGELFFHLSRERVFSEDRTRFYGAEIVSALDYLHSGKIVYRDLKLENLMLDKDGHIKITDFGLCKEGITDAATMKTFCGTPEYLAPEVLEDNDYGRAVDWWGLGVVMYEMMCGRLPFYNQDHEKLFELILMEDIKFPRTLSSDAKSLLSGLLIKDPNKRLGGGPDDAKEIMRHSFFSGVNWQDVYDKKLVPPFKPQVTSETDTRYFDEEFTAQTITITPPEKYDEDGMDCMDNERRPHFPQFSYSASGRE

COc1cc2nc(NC3CC3)nc(NC3CCN(C(C)C)CC3)c2cc1OC [Formula IV] showed a remaining activity at 1 µM [1] of 87%, a remaining activity at 1 µM [2] of 33% and a remaining activity at 1 µM [3] of 90%. For the same compound, the remaining activity at 1 µM [4] was 100%, the remaining activity at 1 µM ([5]; CSF1R-autoinhibited) was 54% and the remaining activity at 1 µM ([5]; CSF1R) was 91%. The remaining activity at 1 µM [6] was 88%, the remaining activity at 1 µM [7] was 93% and the remaining activity at 1 µM [8] was 94%. It also gave a remaining activity at 1 µM [9] of 70%, a remaining activity at 1 µM [10] of 84% and a remaining activity at 1 µM [11] of 74%. For the same compound, the remaining activity at 1 µM [12] was 83%, the remaining activity at 1 µM [13] was 96% and the remaining activity at 1 µM [14] was 100%. For the same compound, the remaining activity at 1 µM [15] was 100%, the remaining activity at 1 µM [16] was 60% and the remaining activity at 1 µM [17] was 64%. It also gave a remaining activity at 1 µM [18] of 100%, a remaining activity at 1 µM [19] of 48% and a remaining activity at 1 µM [20] of 66%. The remaining activity at 1 µM [21] was 100%, the remaining activity at 1 µM [22] was 59% and the remaining activity at 1 µM [23] was 91%. For the same compound, the remaining activity at 1 µM [24] was 96%, the remaining activity at 1 µM [25] was 82% and the remaining activity at 1 µM [26] was 87%. For the same compound, the remaining activity at 1 µM [27] was 91%, the remaining activity at 1 µM [28] was 65% and the remaining activity at 1 µM [29] was 96%. It also gave a remaining activity at 1 µM [30] of 62% and a remaining activity at 1 µM [31] of 56%.
